Assay results reported in US8329693B2, “Method for the prevention of thromboembolic disorders” (Orion Corporation, priority 2004, dated 2012).
“Also recorded” adds a separate entry of the source.

Assays:
[1] = test system: Dahl salt-sensitive rats on high salt diet; experiment: Effects on mortality in salt sensitive rat model (Experiment 1); format: in vivo
Text: Effect of levosimendan on early stage mortality of Dahl salt-sensitive rats was studied. Dahl salt-sensitive rats on high salt diet develop hypertension and increased mortality. In the early stages of hypertension the incidence of death is almost entirely due to stroke and sudden death. See Qu, P. et al., Hypertens. Res., 2000; 23:613-623.
6-week-old male Dahl salt-sensitive rats (SS/JrHsd) received the following diet and drug regimens for 7 weeks: 1) Dahl SS controls on high salt diet, 2) Dahl SS rats on high salt diet+high-dose levosimendan (10 mg/l of levosimendan in drinking water), 3) Dahl SS rats on high salt diet+low-dose levosimendan (1 mg/l of levosimendan in drinking water) and 4) Dahl SS controls on low salt diet. High salt diet was produced by adding NaCl to commercial low salt diet.
Only 38% (9/24) of rats on high salt diet survived the 7-week follow up period.

[2] = test system: Dahl SS rats on high-salt diet; experiment: In vivo T2-weighted MRI of brain lesions, Dahl salt-sensitive rat stroke model; details: for share of animals with T2-lesion volume 0 mm^3 / share of animals with T2-lesion volume 1-50 mm^3 / share of animals with T2-lesion volume 51-100 mm^3 / share of animals with T2-lesion volume >200 mm^3: in vivo MRI
Description: Effect of levosimendan on the incidence of cerebral strokes in Dahl salt-sensitive rat stroke model was studied using Magnetic Resonance Imaging (MRI) and behavioural tests (Neuroscore and Functional Observational Battery (FOB)).
(§1) Dahl SS rats were divided into three treatment groups: High-Salt diet+vehicle (n=20), High-Salt diet+Levosimendan 1 mg/kg/day (n=20), and Normal-Salt diet control (n=4). High salt diet contained 7% of NaCl in commercial low salt diet. Feeding with the high-salt diet was started at the age of 6 weeks and continued 7 weeks until the end of the study. Levosimendan was administered via drinking water (2 mg/l of levosimendan in drinking water). The administration was started at the same time as the high-salt diet and continued until the end of the study. The consumption of drinking water and food as well as the body weight and general health of the animals were monitored. MRI was performed once-a-week during the weeks 2-8. FOB and 7-point Neuroscore testing were performed once-a-week during the weeks 1-3 and twice-a-week during weeks the 4-8.
Diffusion and T2-weighted MRI using Varian Inova console interfaced to a 4.7 T horizontal magnet (Magnex Scientific Ltd.) was performed once-a-week on halothane-anesthetized rats. T2-weighted imaging and quantitative diffusion imaging were used to determine lesion size and to characterize plausible ischaemic lesions in Dahl SS rats. Typical lesions were heterogeneous and consisted of several different regions with different MRI characteristics. Hyperintensity in T2-weighted imaging was found in practically all animals with detectable abnormalities. This can be interpreted as oedematous tissue, which is typical for ischaemic tissue and is, in general, detectable starting at ˜12-24 h after occlusion of the feeding vessel. […] At the high magnetic field (4.7 T) used in this study, any ferromagnetic substance causes local disruption in magnetic field homogeneity which destroys the signal in T2-weighted imaging. This is a characteristic MRI feature for hemorrhage as haemoglobin in blood contains Fe. Thus almost all lesions detected in this study can be characterized to be associated with hemorrhage.

[3] = test system: Dahl SS rats on high-salt diet; experiment: Ex vivo MRI of post-mortem brain, Dahl salt-sensitive rat stroke model; format: in vivo
Description: as §1
For ex-vivo imaging post-mortem brain was removed from the skull and immersed into 4% formalin for 48 h and thereafter stored in 0.1 M PBS. The brain was embedded in perfluoropolyether and MRI was performed in 9.4 T magnet (Oxford) interfaced to a SMIS-console. The interpretation of hyperintensity and signal void areas follows that presented for in vivo studies. In ex vivo studies only mature lesions with significant oedema and destructed tissue structure can be detected. Initial T2 contrast, which may be detectable in vivo, may not be visible in ex vivo studies. The findings in ex vivo studies support the idea that most of the ischemic lesions were associated with hemorrhage. […] Abbreviations: LS, levosimendan.

salt sensitive rat model = experiment: Stroke in salt sensitive rat model (summary statements); format: in vivo; details: preventative treatment

## CC1CC(=O)NN=C1c1ccc(NN=C(C#N)C#N)cc1 (single isomer, unassigned; (-)) [levosimendan, (−)-enantiomer of [[4-(1,4,5,6-tetrahydro-4-methyl-6-oxo-3-pyridazinyl)phenyl]hydrazono]propanedinitrile]
[1]; 7 weeks, levosimendan in drinking water
  early stage mortality of salt-sensitive rats: markedly reduced
[1]; high-dose levosimendan, 10 mg/l in drinking water
  rats that died during the 7-week follow up period: three out of 12
[1]; low-dose levosimendan, 1 mg/l in drinking water, n=12
  rats that died during the 7-week follow up period: None
[2]; 6th week of the study, more than 50% of vehicle treated animals had changes
  noticeable T2-weighted MRI changes: no changes were observed
[2]; at the last MRI measurement, 85% of vehicle treated animals
  animals with detectable T2-weighted MRI changes: 10%
[2]; week 2, lesion volume class 0 mm^3, levosimendan 1 mg/kg/day in drinking water
  share of animals with T2-lesion volume 0 mm^3: 95%
[2]; week 2, lesion volume class 1-50 mm^3, levosimendan 1 mg/kg/day in drinking water
  share of animals with T2-lesion volume 1-50 mm^3: 5%
[2]; week 2, lesion volume class 51-100 mm^3, levosimendan 1 mg/kg/day in drinking water
  share of animals with T2-lesion volume 51-100 mm^3: 0%
[2]; week 2, lesion volume class >200 mm^3, levosimendan 1 mg/kg/day in drinking water
  share of animals with T2-lesion volume >200 mm^3: 0%
[2]; week 3, lesion volume class 0 mm^3, levosimendan 1 mg/kg/day in drinking water
  share of animals with T2-lesion volume 0 mm^3: 100%
[2]; week 3, lesion volume class 1-50 mm^3, levosimendan 1 mg/kg/day in drinking water
  share of animals with T2-lesion volume 1-50 mm^3: 0%
[2]; week 3, lesion volume class 51-100 mm^3, levosimendan 1 mg/kg/day in drinking water
  share of animals with T2-lesion volume 51-100 mm^3: 0%
[2]; week 3, lesion volume class >200 mm^3, levosimendan 1 mg/kg/day in drinking water
  share of animals with T2-lesion volume >200 mm^3: 0%
[2]; week 4, lesion volume class 0 mm^3, levosimendan 1 mg/kg/day in drinking water
  share of animals with T2-lesion volume 0 mm^3: 95%
[2]; week 4, lesion volume class 1-50 mm^3, levosimendan 1 mg/kg/day in drinking water
  share of animals with T2-lesion volume 1-50 mm^3: 5%
[2]; week 4, lesion volume class 51-100 mm^3, levosimendan 1 mg/kg/day in drinking water
  share of animals with T2-lesion volume 51-100 mm^3: 0%
[2]; week 4, lesion volume class >200 mm^3, levosimendan 1 mg/kg/day in drinking water
  share of animals with T2-lesion volume >200 mm^3: 0%
[2]; week 5, lesion volume class 0 mm^3, levosimendan 1 mg/kg/day in drinking water
  share of animals with T2-lesion volume 0 mm^3: 100%
[2]; week 5, lesion volume class 1-50 mm^3, levosimendan 1 mg/kg/day in drinking water
  share of animals with T2-lesion volume 1-50 mm^3: 0%
[2]; week 5, lesion volume class 51-100 mm^3, levosimendan 1 mg/kg/day in drinking water
  share of animals with T2-lesion volume 51-100 mm^3: 0%
[2]; week 5, lesion volume class >200 mm^3, levosimendan 1 mg/kg/day in drinking water
  share of animals with T2-lesion volume >200 mm^3: 0%
[2]; week 6, lesion volume class 0 mm^3, levosimendan 1 mg/kg/day in drinking water
  share of animals with T2-lesion volume 0 mm^3: 100%
[2]; week 6, lesion volume class 1-50 mm^3, levosimendan 1 mg/kg/day in drinking water
  share of animals with T2-lesion volume 1-50 mm^3: 0%
[2]; week 6, lesion volume class 51-100 mm^3, levosimendan 1 mg/kg/day in drinking water
  share of animals with T2-lesion volume 51-100 mm^3: 0%
[2]; week 6, lesion volume class >200 mm^3, levosimendan 1 mg/kg/day in drinking water
  share of animals with T2-lesion volume >200 mm^3: 0%
[2]; week 7, lesion volume class 0 mm^3, levosimendan 1 mg/kg/day in drinking water
  share of animals with T2-lesion volume 0 mm^3: 90%
[2]; week 7, lesion volume class 1-50 mm^3, levosimendan 1 mg/kg/day in drinking water
  share of animals with T2-lesion volume 1-50 mm^3: 0%
[2]; week 7, lesion volume class 51-100 mm^3, levosimendan 1 mg/kg/day in drinking water
  share of animals with T2-lesion volume 51-100 mm^3: 10%
[2]; week 7, lesion volume class >200 mm^3, levosimendan 1 mg/kg/day in drinking water
  share of animals with T2-lesion volume >200 mm^3: 0%
[2]; week 8, lesion volume class 0 mm^3, levosimendan 1 mg/kg/day in drinking water
  share of animals with T2-lesion volume 0 mm^3: 89%
[2]; week 8, lesion volume class 1-50 mm^3, levosimendan 1 mg/kg/day in drinking water
  share of animals with T2-lesion volume 1-50 mm^3: 5%
[2]; week 8, lesion volume class 51-100 mm^3, levosimendan 1 mg/kg/day in drinking water
  share of animals with T2-lesion volume 51-100 mm^3: 0%
[2]; week 8, lesion volume class >200 mm^3, levosimendan 1 mg/kg/day in drinking water
  share of animals with T2-lesion volume >200 mm^3: 5%
[3]; class 0, levosimendan 1 mg/kg/day
  Incidence of T2 changes, class 0: 80%
[3]; class 1-50, levosimendan 1 mg/kg/day
  Incidence of T2 changes, class 1-50: 20%
[3]; class 51-100, levosimendan 1 mg/kg/day
  Incidence of T2 changes, class 51-100: 0%
[3]; class >200, levosimendan 1 mg/kg/day
  Incidence of T2 changes, class >200: 0%
Salt sensitive rat model
  incidence and volume of brain lesions, behavioural disorders and mortality associated with stroke: reduces and/or postpones; also recorded: markedly reduce
